Measurements: patent US9833497B2, “Human originated EGF domain proteins and use of the same” (CHENGDU SOURCEBIO LIMITED-LIABILITY COMPANY, priority 2013, dated 2017)

Key:
Type in all cases: cell-based
[1] = tested on: E. coli DH5α; assay: Antibacterial activity: MIC and growth curve against E. coli DH5α in 96-well plate; details: minimal inhibitory concentration against E. coli DH5α; 96-well plate, 5×10^5 CFU/mL, 37° C., judged after 8 h
Summary of the method: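 Log-phase bacteria (OD600 ~0.5) resuspended in LB at 5×10^5 CFU/mL, exposed to recombinant protein at 50, 25, 12.5 μg/mL final in triplicate, 37 °C shaking at 175 rpm. OD600 read every 30 min; MIC is lowest concentration showing no growth.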

[2] = tested on: E. coli BL21; assay: MIC against Gram-negative bacteria: E. coli BL21; details: E. coli BL21
Summary of the method: (§1)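 MIC, the lowest recombinant protein concentration giving no bacterial growth, found by two-fold serial dilution of human EGF-domain proteins in triplicate. Inoculum 5×10^5 CFU/mL in LB from cultures at McFarland 0.5; plates incubated at 37° C, 175 rpm shaking.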

[3] = tested on: Pseudomonas aeruginosa; assay: MIC against Gram-negative bacteria: Pseudomonas aeruginosa; details: for MIC against P. aeruginosa: Pseudomonas aeruginosa
Summary of the method: as §1

[4] = tested on: Klebsiella pneumonia; assay: MIC against Gram-negative bacteria: Klebsiella pneumonia; details: for MIC against K. pneumonia: Klebsiella pneumonia
Summary of the method: as §1

[5] = tested on: Enterobacter cloacae; assay: MIC against Gram-negative bacteria: Enterobacter cloacae; details: for MIC against E. cloacae: Enterobacter cloacae
Summary of the method: as §1

[6] = tested on: Aeromonas hydrophila; assay: MIC against Gram-negative bacteria: Aeromonas hydrophila; details: for MIC against A. hydrophila: Aeromonas hydrophila
Summary of the method: as §1

[7] = tested on: Citrobacter diversus; assay: MIC against Gram-negative bacteria: Citrobacter diversus; details: for MIC against C. diversus: Citrobacter diversus
Summary of the method: as §1

[8] = tested on: Moraxella catarrhalis; assay: MIC against Gram-negative bacteria: Moraxella catarrhalis; details: for MIC against M. catarrhalis: Moraxella catarrhalis
Summary of the method: as §1

[9] = tested on: Proteus mirabilis; assay: MIC against Gram-negative bacteria: Proteus mirabilis; details: for MIC against P. mirabilis: Proteus mirabilis
Summary of the method: as §1

[10] = tested on: Proteus vulgaris; assay: MIC against Gram-negative bacteria: Proteus vulgaris; details: for MIC against P. vulgaris: Proteus vulgaris
Summary of the method: as §1

[11] = tested on: Serratia marcescens; assay: MIC against Gram-negative bacteria: Serratia marcescens; details: for MIC against S. marcescens: Serratia marcescens
Summary of the method: as §1

[12] = 5×10^5 CFU/mL, 10 h cultivation at 37° C.
[13] = 96-well plate, 5×10^5 CFU/mL, 37° C., 10 h
[14] = P. aeruginosa, 10 h cultivation at 37° C.
[15] = K. pneumonia, 10 h cultivation at 37° C.
[16] = E. cloacae, 10 h cultivation at 37° C.
[17] = A. hydrophila, 10 h cultivation at 37° C.
[18] = C. diversus, 10 h cultivation at 37° C.
[19] = M. catarrhalis, 10 h cultivation at 37° C.
[20] = P. mirabilis, 10 h cultivation at 37° C.
[21] = P. vulgaris, 10 h cultivation at 37° C.
[22] = S. marcescens, 10 h cultivation at 37° C.

Substance: PRT1483 (DIDECVTSSCEGHCVNTEGGFVCECGPGMQLSADRHSCQ; listed as Homo sapiens)
- MIC [1]: 12.5 µg/mL
- MIC against E. coli BL21 [2, 12]: 25 µg/mL
- MIC against P. aeruginosa [3, 12]: 50 µg/mL
- MIC against K. pneumonia [4, 12]: 25 µg/mL
- MIC against E. cloacae [5, 12]: 12.5 µg/mL
- MIC against A. hydrophila [6, 12]: 25 µg/mL
- MIC against C. diversus [7, 12]: 50 µg/mL
- MIC against M. catarrhalis [8, 12]: 25 µg/mL
- MIC against P. mirabilis [9, 12]: 12.5 µg/mL
- MIC against P. vulgaris [10, 12]: 25 µg/mL
- MIC against S. marcescens [11, 12]: 25 µg/mL

Substance: PRT1286 (PKSPCEGTECQNGANCVDQGNRPVCQCLPGFGGPECE; listed as Homo sapiens)
- MIC [1]: 12.5 µg/mL
- MIC against E. coli BL21 [2, 13]: 50 µg/mL
- MIC against P. aeruginosa [3, 13]: 12.5 µg/mL
- MIC against K. pneumonia [4, 13]: 50 µg/mL
- MIC against E. cloacae [5, 13]: 12.5 µg/mL
- MIC against A. hydrophila [6, 13]: 50 µg/mL
- MIC against C. diversus [7, 13]: 12.5 µg/mL
- MIC against M. catarrhalis [8, 13]: 25 µg/mL
- MIC against P. mirabilis [9, 13]: 50 µg/mL
- MIC against P. vulgaris [10, 13]: 25 µg/mL
- MIC against S. marcescens [11, 13]: 12.5 µg/mL

Substance: PRT904 (NTPDCTESSCFNGGTCVDGINSFTCLCPPGFTGSYCQ; listed as Homo sapiens)
- MIC [1]: 50 µg/mL
- MIC ([2]; 10 h cultivation at 37° C.): 12.5 µg/mL
- MIC [3, 14]: 25 µg/mL
- MIC [4, 15]: 12.5 µg/mL
- MIC [5, 16]: 12.5 µg/mL
- MIC [6, 17]: 25 µg/mL
- MIC [7, 18]: 12.5 µg/mL
- MIC [8, 19]: 25 µg/mL
- MIC [9, 20]: 12.5 µg/mL
- MIC [10, 21]: 25 µg/mL
- MIC [11, 22]: 25 µg/mL

Substance: PRT1026 (NKETCEHNHRQCSRHAFCTDYATGFCCHCQSKFYGNGKHCL; listed as Homo sapiens)
- MIC [1]: 12.5 µg/mL
- MIC ([2]; 10 h cultivation at 37° C.): 25 µg/mL
- MIC [3, 14]: 50 µg/mL
- MIC [4, 15]: 25 µg/mL
- MIC [5, 16]: 12.5 µg/mL
- MIC [6, 17]: 50 µg/mL
- MIC [7, 18]: 12.5 µg/mL
- MIC [8, 19]: 50 µg/mL
- MIC [9, 20]: 12.5 µg/mL
- MIC [10, 21]: 25 µg/mL
- MIC [11, 22]: 50 µg/mL

Substance: PRT1351 (TAVCQSPCLNGGKCVRPNRCHCLSSWTGHNCS; listed as Homo sapiens)
- MIC [1]: 25 µg/mL
- MIC against E. coli BL21 [2, 12]: 25 µg/mL
- MIC against P. aeruginosa [3, 12]: 50 µg/mL
- MIC against K. pneumonia [4, 12]: 25 µg/mL
- MIC against E. cloacae [5, 12]: 12.5 µg/mL
- MIC against A. hydrophila [6, 12]: 12.5 µg/mL
- MIC against C. diversus [7, 12]: 12.5 µg/mL
- MIC against M. catarrhalis [8, 12]: 25 µg/mL
- MIC against P. mirabilis [9, 12]: 12.5 µg/mL
- MIC against P. vulgaris [10, 12]: 25 µg/mL
- MIC against S. marcescens [11, 12]: 12.5 µg/mL

Substance: PRT189 (SIDACASSPCFNRATCYTDLSTDTFVCNCPYGFVGSRCE; listed as Homo sapiens)
- MIC [1]: 25 µg/mL
- MIC (μg/mL) E. coli BL21 ([2]; 10 h cultivation at 37° C., 5×10^5 CFU/mL): 12.5 µg/mL
- MIC (μg/mL) P. aeruginosa ([3]; P. aeruginosa, 10 h cultivation at 37° C., 5×10^5 CFU/mL): 25 µg/mL
- MIC (μg/mL) K. pneumonia ([4]; K. pneumonia, 10 h cultivation at 37° C., 5×10^5 CFU/mL): 12.5 µg/mL
- MIC (μg/mL) E. cloacae ([5]; E. cloacae, 10 h cultivation at 37° C., 5×10^5 CFU/mL): 25 µg/mL
- MIC (μg/mL) A. hydrophila ([6]; A. hydrophila, 10 h cultivation at 37° C., 5×10^5 CFU/mL): 50 µg/mL
- MIC (μg/mL) C. diversus ([7]; C. diversus, 10 h cultivation at 37° C., 5×10^5 CFU/mL): 25 µg/mL
- MIC (μg/mL) M. catarrhalis ([8]; M. catarrhalis, 10 h cultivation at 37° C., 5×10^5 CFU/mL): 12.5 µg/mL
- MIC (μg/mL) P. mirabilis ([9]; P. mirabilis, 10 h cultivation at 37° C., 5×10^5 CFU/mL): 25 µg/mL
- MIC (μg/mL) P. vulgaris ([10]; P. vulgaris, 10 h cultivation at 37° C., 5×10^5 CFU/mL): 50 µg/mL
- MIC (μg/mL) S. marcescens ([11]; S. marcescens, 10 h cultivation at 37° C., 5×10^5 CFU/mL): 25 µg/mL

Substance: PRT1196 (DVDLCEPSPCRNGARCYNLEGDYYCACPDDFGGKNCS; listed as Homo sapiens)
- MIC [1]: 12.5 µg/mL
- MIC against E. coli BL21 [2, 13]: 50 µg/mL
- MIC against P. aeruginosa [3, 13]: 12.5 µg/mL
- MIC against K. pneumonia [4, 13]: 25 µg/mL
- MIC against E. cloacae [5, 13]: 25 µg/mL
- MIC against A. hydrophila [6, 13]: 25 µg/mL
- MIC against C. diversus [7, 13]: 50 µg/mL
- MIC against M. catarrhalis [8, 13]: 25 µg/mL
- MIC against P. mirabilis [9, 13]: 12.5 µg/mL
- MIC against P. vulgaris [10, 13]: 25 µg/mL
- MIC against S. marcescens [11, 13]: 50 µg/mL
